Results as given in PubChem BioAssay (NCI).
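Grown in 96-well plates, cells were treated for 48 hours with each compound at five concentrations. Insufficient inhibition: endpoint recorded as highest concentration tested. GI50 marks 50% less growth. TGI marks complete inhibition of growth.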

Columns and labels:
Test in all cases: NCI-60 cell line screen, 48 h
[1] = test system: 786-0 renal
[2] = test system: A498 renal
[3] = test system: A549 NSCLC
[4] = test system: ACHN renal
[5] = test system: BT-549 breast
[6] = test system: CAKI-1 renal
[7] = test system: CCRF-CEM leukemia
[8] = test system: COLO 205 colon
[9] = test system: DU-145 prostate
[10] = test system: EKVX NSCLC
[11] = test system: HCC-2998 colon
[12] = test system: HCT-116 colon
[13] = test system: HCT-15 colon
[14] = test system: HL-60(TB) leukemia
[15] = test system: HOP-62 NSCLC
[16] = test system: HOP-92 NSCLC
[17] = test system: HS 578T breast
[18] = test system: HT29 colon
[19] = test system: IGROV1 ovarian
[20] = test system: K-562 leukemia
[21] = test system: KM12 colon
[22] = test system: LOX IMVI melanoma
[23] = test system: M14 melanoma
[24] = test system: MALME-3M melanoma
[25] = test system: MCF7 breast
[26] = test system: MDA-MB-231 breast
[27] = test system: MDA-MB-435
[28] = test system: MDA-MB-468 breast
[29] = test system: MOLT-4 leukemia
[30] = test system: NCI-H226 lung
[31] = test system: NCI-H23 lung
[32] = test system: NCI-H460 lung
[33] = test system: NCI-H522 lung
[34] = test system: OVCAR-3 ovarian
[35] = test system: OVCAR-4 ovarian
[36] = test system: OVCAR-5 ovarian
[37] = test system: OVCAR-8 ovarian
[38] = test system: PC-3 prostate
[39] = test system: RPMI-8226 leukemia
[40] = test system: RXF 393 renal
[41] = test system: SF-268 CNS
[42] = test system: SF-295 CNS
[43] = test system: SF-539 CNS
[44] = test system: SK-MEL-2 melanoma
[45] = test system: SK-MEL-28 melanoma
[46] = test system: SK-MEL-5 melanoma
[47] = test system: SK-OV-3 ovarian
[48] = test system: SN12C renal
[49] = test system: SNB-19 CNS
[50] = test system: SNB-75 CNS
[51] = test system: SR leukemia
[52] = test system: SW-620 colon
[53] = test system: T-47D breast
[54] = test system: TK-10 renal
[55] = test system: U251 CNS
[56] = test system: UACC-257 melanoma
[57] = test system: UACC-62 melanoma
[58] = test system: UO-31 renal

Work on O=C(c1ccc(O)cc1)C1[C@H](c2ccccc2Br)[C@@H](c2ccccc2)NC12C(=O)Nc1ccc(Cl)cc12 (some centres not stated) yielded a GI50 [1] of 6.57 µM, a TGI [1] of 13.7 µM and a GI50 [2] of 6.57 µM. For the same compound, the TGI [2] was 13.9 µM, the GI50 [3] was 3.43 µM and the TGI [3] was 11.2 µM. It also gave a GI50 [4] of 5.39 µM, a TGI [4] of 11.8 µM and a GI50 [5] of 2.19 µM. The TGI [5] was 9.37 µM, the GI50 [6] was 2 µM and the TGI [6] was 8.85 µM. The GI50 [7] was 3.49 µM, the TGI [7] was 16.5 µM and the GI50 [8] was 7.35 µM. The TGI [8] was 15.7 µM, the GI50 [9] was 8.01 µM and the TGI [9] was 16.5 µM. It also gave a GI50 [10] of 6.65 µM, a TGI [10] of 15.4 µM and a GI50 [11] of 2.42 µM. It also gave a TGI [11] of 9.01 µM, a GI50 [12] of 4.12 µM and a TGI [12] of 11.4 µM. It also gave a GI50 [13] of 6.63 µM, a TGI [13] of 16.1 µM and a GI50 [14] of 5.86 µM. It also gave a TGI [14] of 20.3 µM, a GI50 [15] of 7.08 µM and a TGI [15] of 14.9 µM. For the same compound, the GI50 [16] was 3.03 µM, the TGI [16] was 11.6 µM and the GI50 [17] was 6.2 µM. The TGI [17] was 22.6 µM, the GI50 [18] was 7.36 µM and the TGI [18] was 17.9 µM. The GI50 [19] was 2.3 µM, the TGI [19] was 9.11 µM and the GI50 [20] was 3.75 µM. It also gave a TGI [20] of 17.9 µM, a GI50 [21] of 2.91 µM and a TGI [21] of 11.1 µM. For the same compound, the GI50 [22] was 5.53 µM, the TGI [22] was 13.1 µM and the GI50 [23] was 4.77 µM. For the same compound, the TGI [23] was 12.4 µM, the GI50 [24] was 7.89 µM and the TGI [24] was 15.3 µM. For the same compound, the GI50 [25] was 3.17 µM, the TGI [25] was 13.7 µM and the GI50 [26] was 4.68 µM. It also gave a TGI [26] of 11.8 µM, a GI50 [27] of 4.78 µM and a TGI [27] of 12.9 µM. It also gave a GI50 [28] of 1.61 µM, a TGI [28] of 6.96 µM and a GI50 [29] of 2.2 µM. It also gave a TGI [29] of 11.4 µM, a GI50 [30] of 1.57 µM and a TGI [30] of 6.22 µM. For the same compound, the GI50 [31] was 6.65 µM, the TGI [31] was 14.4 µM and the GI50 [32] was 4.72 µM. For the same compound, the TGI [32] was 12.7 µM, the GI50 [33] was 2.23 µM and the TGI [33] was 8.45 µM. For the same compound, the GI50 [34] was 2.76 µM, the TGI [34] was 9.34 µM and the GI50 [35] was 4.69 µM. The TGI [35] was 13.7 µM, the GI50 [36] was 6.25 µM and the TGI [36] was 13 µM. For the same compound, the GI50 [37] was 6.72 µM, the TGI [37] was 14.6 µM and the GI50 [38] was 2.8 µM. It also gave a TGI [38] of 11.3 µM, a GI50 [39] of 3.29 µM and a TGI [39] of 43.8 µM. It also gave a GI50 [40] of 2.86 µM, a TGI [40] of 10.5 µM and a GI50 [41] of 3.99 µM. For the same compound, the TGI [41] was 13.4 µM, the GI50 [42] was 4.98 µM and the TGI [42] was 12.5 µM. It also gave a GI50 [43] of 6.11 µM, a TGI [43] of 12.8 µM and a GI50 [44] of 6.49 µM. For the same compound, the TGI [44] was 13.8 µM, the GI50 [45] was 7.51 µM and the TGI [45] was 14.7 µM. For the same compound, the GI50 [46] was 8.68 µM, the TGI [46] was 16.8 µM and the GI50 [47] was 7.69 µM. The TGI [47] was 15.4 µM, the GI50 [48] was 1.7 µM and the TGI [48] was 6.32 µM. For the same compound, the GI50 [49] was 5.97 µM, the TGI [49] was 12.6 µM and the GI50 [50] was 1.44 µM. The TGI [50] was 8.12 µM, the GI50 [51] was 2.01 µM and the TGI [51] was 9.34 µM. The GI50 [52] was 6.73 µM, the TGI [52] was 14.8 µM and the GI50 [53] was 5.51 µM. It also gave a TGI [53] of 14.9 µM, a GI50 [54] of 7.76 µM and a TGI [54] of 16 µM. For the same compound, the GI50 [55] was 3.46 µM, the TGI [55] was 10.8 µM and the GI50 [56] was 6.51 µM. The TGI [56] was 13.5 µM, the GI50 [57] was 5.71 µM and the TGI [57] was 12.2 µM. For the same compound, the GI50 [58] was 3.26 µM and the TGI [58] was 10.9 µM.
For CC1=C(COCCOC(=O)c2ccc(S(=O)(=O)F)cc2)C2=C(C)C3(CC3)[C@@](C)(O)C(=O)C2=C1, the GI50 [1] was 19 µM, the TGI [1] was 42.3 µM and the GI50 [2] was 18.6 µM. For the same compound, the TGI [2] was 43.7 µM, the GI50 [3] was 25.9 µM and the TGI [3] was 80.8 µM. It also gave a GI50 [4] of 21.7 µM, a TGI [4] of 49.9 µM and a GI50 [5] of 14.9 µM. For the same compound, the TGI [5] was 32.2 µM, the GI50 [6] was 16 µM and the TGI [6] was 32.5 µM. For the same compound, the GI50 [7] was 21.4 µM, the TGI [7] was 52.3 µM and the GI50 [8] was 19.6 µM. It also gave a TGI [8] of 37.2 µM, a GI50 [9] of 24.1 µM and a TGI [9] of 57.2 µM. The GI50 [10] was 17.5 µM, the TGI [10] was 33.8 µM and the GI50 [11] was 18.5 µM. For the same compound, the TGI [11] was 33.6 µM, the GI50 [12] was 16.7 µM and the TGI [12] was 32.4 µM. The GI50 [13] was 20.8 µM, the TGI [13] was 43.1 µM and the GI50 [14] was 24.3 µM. The TGI [14] was 55.1 µM, the GI50 [15] was 21.6 µM and the TGI [15] was 58.2 µM. For the same compound, the GI50 [16] was 16.6 µM, the TGI [16] was 42.2 µM and the GI50 [17] was 25.4 µM. It also gave a TGI [17] of 99.6 µM, a GI50 [18] of 18.4 µM and a TGI [18] of 35.9 µM. The GI50 [19] was 17 µM, the TGI [19] was 32.4 µM and the GI50 [20] was 25.8 µM. For the same compound, the TGI [20] was 58.5 µM, the GI50 [21] was 23.6 µM and the TGI [21] was 53.8 µM. For the same compound, the GI50 [22] was 17.8 µM, the TGI [22] was 34.6 µM and the GI50 [23] was 18.9 µM. It also gave a TGI [23] of 36.9 µM, a GI50 [24] of 16 µM and a TGI [24] of 30.8 µM. It also gave a GI50 [25] of 27 µM, a TGI [25] of 91.2 µM and a GI50 [26] of 17.7 µM. For the same compound, the TGI [26] was 34.2 µM, the GI50 [27] was 22.2 µM and the TGI [27] was 52.2 µM. It also gave a GI50 [28] of 18.7 µM, a TGI [28] of 40.1 µM and a GI50 [29] of 26.3 µM. It also gave a TGI [29] of 72.3 µM, a GI50 [30] of 27.9 µM and a TGI [30] of 85.7 µM. For the same compound, the GI50 [31] was 19.4 µM, the TGI [31] was 37.5 µM and the GI50 [32] was 21.6 µM. The TGI [32] was 45.8 µM, the GI50 [33] was 16 µM and the TGI [33] was 30.9 µM. For the same compound, the GI50 [34] was 18.4 µM, the TGI [34] was 34.7 µM and the GI50 [35] was 20.1 µM. For the same compound, the TGI [35] was 48.4 µM, the GI50 [36] was 18.1 µM and the TGI [36] was 36.6 µM. For the same compound, the GI50 [37] was 18.9 µM, the TGI [37] was 40.1 µM and the GI50 [38] was 19.8 µM. For the same compound, the TGI [38] was 51.3 µM, the GI50 [39] was 26 µM and the TGI [39] was 69.4 µM. The GI50 [40] was 17.5 µM, the TGI [40] was 34.8 µM and the GI50 [41] was 26 µM. It also gave a TGI [41] of 77.6 µM, a GI50 [42] of 22.1 µM and a TGI [42] of 51.6 µM. It also gave a GI50 [43] of 17.7 µM, a TGI [43] of 33.9 µM and a GI50 [44] of 17.9 µM. It also gave a TGI [44] of 35.3 µM, a GI50 [45] of 16.2 µM and a TGI [45] of 30.1 µM. For the same compound, the GI50 [46] was 20 µM, the TGI [46] was 39.5 µM and the GI50 [47] was 18.6 µM. It also gave a TGI [47] of 39.5 µM, a GI50 [48] of 16.6 µM and a TGI [48] of 30.4 µM. It also gave a GI50 [49] of 17 µM, a TGI [49] of 32.5 µM and a GI50 [50] of 16.3 µM. It also gave a TGI [50] of 49.7 µM, a GI50 [51] of 22.5 µM and a TGI [51] of 56.2 µM. The GI50 [52] was 17.5 µM, the TGI [52] was 33.9 µM and the GI50 [53] was 17.7 µM. For the same compound, the TGI [53] was 40 µM, the GI50 [54] was 19.6 µM and the TGI [54] was 45.3 µM. For the same compound, the GI50 [55] was 18.1 µM, the TGI [55] was 37.3 µM and the GI50 [56] was 17.7 µM. It also gave a TGI [56] of 38.3 µM, a GI50 [57] of 16.2 µM and a TGI [57] of 30.2 µM. For the same compound, the GI50 [58] was 17 µM and the TGI [58] was 44.8 µM.
